According to the NIST ThermoML archive (doi:10.1021/je060271a):

Conditions: 323.15 K, Liquid, Vibrating tube method

CCCCCCCC(=O)OCC(COC(=O)CCCCCCC)(COC(=O)CCCCCCC)COC(=O)CCCCCCC [pentaerythritol tetraoctanoate]
Conditions	mass density [kg/m3]
1092.7 kPa	941.3
1117.7 kPa	941.4
1150.2 kPa	941.4
1178 kPa	941.4
1206.8 kPa	941.4
1237.7 kPa	941.5
1275.6 kPa	941.4
1308.8 kPa	941.4
1344.2 kPa	941.6
1380.8 kPa	941.4
1426.8 kPa	941.7
1467.5 kPa	941.6
1510.3 kPa	941.7
1707.2 kPa	941.7
1720.8 kPa	941.6
1734.6 kPa	941.9
1749 kPa	941.8
1766.8 kPa	941.8
1780.8 kPa	941.9
1795.7 kPa	941.8
1810.5 kPa	941.9
1828.9 kPa	941.8
1844.2 kPa	941.8
1859.6 kPa	942
1875.8 kPa	941.8
1895.2 kPa	942
1915.1 kPa	941.9
1932.3 kPa	942
1947.8 kPa	942
1957.8 kPa	942
1963.7 kPa	942
1968.9 kPa	942
1974 kPa	942
1987.2 kPa	942.1
2016.7 kPa	941.9
2142.1 kPa	942
2259.4 kPa	942.1
2339.7 kPa	942.1
2352.9 kPa	942.3
2366.5 kPa	942.3
2382.6 kPa	942.2
2409.7 kPa	942.5
2426.8 kPa	942.3
2441.1 kPa	942.3
2454.6 kPa	942.4
2468.6 kPa	942.2
2486 kPa	942.4
2500.4 kPa	942.4
2515.6 kPa	942.2
2533.2 kPa	942.4
2546 kPa	942.5
2554.1 kPa	942.4
2597 kPa	942.4
2605 kPa	942.4
2612.9 kPa	942.4
2622.5 kPa	942.4
2630.8 kPa	942.4
2639.1 kPa	942.4
2648.3 kPa	942.4
2656.5 kPa	942.4
2664.8 kPa	942.5
2674.9 kPa	942.5
2683.4 kPa	942.5
2692.2 kPa	942.4
2701.1 kPa	942.4
2709.7 kPa	942.4
2720 kPa	942.5
2728.5 kPa	942.4
2737.3 kPa	942.5
2746.3 kPa	942.5
2756.7 kPa	942.6
2765.4 kPa	942.6
2775.6 kPa	942.5
2784.8 kPa	942.5
2793.7 kPa	942.6
2803.2 kPa	942.6
2814.5 kPa	942.5
2821.9 kPa	942.6
2832.7 kPa	942.6
2841.7 kPa	942.5
2852.6 kPa	942.6
2862.2 kPa	942.5
2871.5 kPa	942.6
2880.9 kPa	942.6
2892.2 kPa	942.6
2901.4 kPa	942.6
2911.2 kPa	942.6
2922.7 kPa	942.6
2932.2 kPa	942.6
2944 kPa	942.6
2953.7 kPa	942.6
2963.9 kPa	942.6
2974 kPa	942.7
2983.7 kPa	942.7
2995.7 kPa	942.7
3005.6 kPa	942.6
3016 kPa	942.6
3027.9 kPa	942.7
3038.3 kPa	942.7
3048.7 kPa	942.7
3059.1 kPa	942.7
3071.6 kPa	942.8
3082 kPa	942.7
3092.6 kPa	942.7
3105.1 kPa	942.7
3115.6 kPa	942.8
3128.6 kPa	942.7
3139.4 kPa	942.6
3150.3 kPa	942.7
3159 kPa	942.7
3173.9 kPa	942.8
3185.2 kPa	942.8
3196.4 kPa	942.8
3207.5 kPa	942.8
3220.5 kPa	942.8
3232.3 kPa	942.8
3243.6 kPa	942.8
3257.1 kPa	942.9
3268.7 kPa	942.8
3280 kPa	942.8
3291.9 kPa	942.9
3306.1 kPa	942.9
3317.8 kPa	942.8
3329.5 kPa	942.9
3343.6 kPa	942.8
3355.4 kPa	942.9
3367.5 kPa	943
3380.2 kPa	943
3392.6 kPa	943.1
3407.2 kPa	943
3419.3 kPa	942.9
3431.8 kPa	943.1
3446.7 kPa	943
3459.2 kPa	942.9
3469.6 kPa	942.9
3479.3 kPa	943
3494.5 kPa	942.9
3507.4 kPa	943
3540.6 kPa	943
3553.8 kPa	942.9
3567 kPa	943.1
3580 kPa	943.1
3710.3 kPa	943.1
3724.8 kPa	943.2
3743.3 kPa	943
3756.8 kPa	943.3
3771.5 kPa	943.2
